Test results taken from PMC7312539, “Homology Modeling of the Human P-glycoprotein (ABCB1) and Insights into Ligand Binding through Molecular Docking Studies” (International Journal of Molecular Sciences, 2020).

Target: efflux pump P-gp (Homo sapiens, UniProt P08183)
Conditions: Figure 11; for Effect on the rate of excretion of rhodamine 123 (R123) out of Caco-2 cells / interaction with P-gp: Caco-2 cells loaded with 10 μM R123, compared to control DMSO
Procedure: Results are expressed as percentage compared to the rate of excretion of R123 in the absence of drug (i.e control DMSO). Error bars: SD; verapamil: positive control; diazepam: negative control.
Shortly, Caco-2 cells were washed with HEPES-buffered Ringer’s (RH) solution (NaCl 150 mM, KCl 5.2 mM, CaCl2 2.2 mM, MgCl2 0.2 mM, NaHCO3 6 mM, Glucose 2.8 mM, HEPES 5 mM, water for injection), pH = 7.4 and incubated for 120 min with 10 μM R123. After incubation, cells were washed with RH and incubated with test compounds for one hour during which the rate out (Kout) of R123 (λex = 485 nm and λem = 538 nm) was monitored every 2 minutes with a microplate fluorescence reader (Fluoroskan Ascent FL, Thermo Labsystems, Issy-Les-Moulineaux, France) at 37 °C, after which the cell viability was assessed using MTT cytotoxicity assay kit. Rhodamine Kout was calculated as the slope of the curve of the cumulative R123 fluorescence against the time. Verapamil was used as a positive control and diazepam as negative control.

Chain of efflux pump P-gp (P08183 whole entry): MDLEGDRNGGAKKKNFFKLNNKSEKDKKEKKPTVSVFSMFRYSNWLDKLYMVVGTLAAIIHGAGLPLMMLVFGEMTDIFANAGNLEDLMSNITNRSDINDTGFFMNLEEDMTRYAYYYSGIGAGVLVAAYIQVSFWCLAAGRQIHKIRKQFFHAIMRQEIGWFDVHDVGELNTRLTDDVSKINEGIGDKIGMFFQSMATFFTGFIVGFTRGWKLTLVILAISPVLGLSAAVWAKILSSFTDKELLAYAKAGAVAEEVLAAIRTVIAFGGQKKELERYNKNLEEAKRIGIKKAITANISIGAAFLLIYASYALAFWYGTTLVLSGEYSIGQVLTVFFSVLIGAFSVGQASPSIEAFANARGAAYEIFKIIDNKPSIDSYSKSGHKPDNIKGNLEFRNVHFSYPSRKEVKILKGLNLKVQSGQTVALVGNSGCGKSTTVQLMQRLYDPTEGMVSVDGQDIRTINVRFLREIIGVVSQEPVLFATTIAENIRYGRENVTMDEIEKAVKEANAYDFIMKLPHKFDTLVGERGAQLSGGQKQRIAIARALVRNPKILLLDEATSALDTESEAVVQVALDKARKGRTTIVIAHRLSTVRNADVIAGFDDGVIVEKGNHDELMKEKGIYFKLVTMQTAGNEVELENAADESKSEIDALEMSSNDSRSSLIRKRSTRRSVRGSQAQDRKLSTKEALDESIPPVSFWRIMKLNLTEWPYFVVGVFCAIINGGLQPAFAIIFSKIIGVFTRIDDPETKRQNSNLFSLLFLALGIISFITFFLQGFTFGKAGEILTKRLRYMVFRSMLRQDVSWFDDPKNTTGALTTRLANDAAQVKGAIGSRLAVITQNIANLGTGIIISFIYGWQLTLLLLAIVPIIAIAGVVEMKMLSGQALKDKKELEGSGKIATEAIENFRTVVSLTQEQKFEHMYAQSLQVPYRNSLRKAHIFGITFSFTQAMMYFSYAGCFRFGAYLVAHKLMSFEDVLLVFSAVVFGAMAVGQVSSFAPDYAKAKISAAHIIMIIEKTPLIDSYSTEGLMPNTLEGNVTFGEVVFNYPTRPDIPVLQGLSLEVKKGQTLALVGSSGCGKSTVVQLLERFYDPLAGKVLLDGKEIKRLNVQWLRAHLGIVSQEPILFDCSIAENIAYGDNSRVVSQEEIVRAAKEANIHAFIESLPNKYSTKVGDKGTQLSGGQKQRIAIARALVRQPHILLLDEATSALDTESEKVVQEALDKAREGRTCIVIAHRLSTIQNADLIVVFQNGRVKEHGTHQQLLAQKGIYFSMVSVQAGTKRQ

Effect on the rate of excretion of rhodamine 123 (R123) out of Caco-2 cells / interaction with P-gp	SMILES	Interference with the P-gp mediated efflux of R123 out of Caco-2 cells (compound at 50 µM, Caco-2 cells)
did not show any interaction	NCCC(O)(P(=O)(O)O)P(=O)(O)O [APD, pamidronate]	
not transported by P-gp	CS(=O)(=O)OCCCCOS(C)(=O)=O [BU, busulfan]	
	C[n+]1ccc(-c2cc[n+](C)cc2)cc1 [PQ, paraquat]	do not interfere
not transported by P-gp	CCCC(CCC)C(=O)O [VPA, valproic acid]	
